Data reported in the supplement of paper PMC10307832.

Tests used:
Experiment in all cases: relative viability (nuclei count vs DMSO), 5 days (fraction); higher = more cells survive
[1] = test system: BEN
In short: (§1)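 Lung cancer cell lines in 1536-well plates were dosed by pin tool the day after seeding, either with one drug alone or with a fixed anchor-drug dose plus five library-drug doses (not always all listed) in √10 steps. After 5 days, cells were fixed and their nuclei stained in one step (final 0.05% Triton X-100, 1% formaldehyde, 1 ug/ml Hoechst), then counted on 4× images. Relative viability is the nuclei count in treated wells divided by that in vehicle wells. Values are medians of duplicate plates.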

[2] = test system: EKVX
In short: as §1

[3] = test system: HARA
In short: as §1

[4] = test system: HCC-366
In short: as §1

[5] = test system: HCC-827
In short: as §1

[6] = test system: LOU-NH91
In short: as §1

[7] = test system: NCI-H1355
In short: as §1

[8] = test system: NCI-H1395
In short: as §1

[9] = test system: NCI-H1437
In short: as §1

[10] = test system: NCI-H1734
In short: as §1

[11] = test system: NCI-H1792
In short: as §1

[12] = test system: NCI-H1993
In short: as §1

[13] = test system: NCI-H2009
In short: as §1

[14] = test system: NCI-H2087
In short: as §1

[15] = test system: NCI-H2170
In short: as §1

[16] = test system: NCI-H2405
In short: as §1

[17] = test system: NCI-H647
In short: as §1

[18] = test system: SK-LU-1
In short: as §1

[19] = test system: SK-MES-1
In short: as §1

Cc1sc2c(c1C)C(c1ccc(Cl)cc1)=N[C@@H](CC(=O)OC(C)(C)C)c1nnc(C)n1-2 [JQ1] + CC1(C)CCC(c2ccc(Cl)cc2)=C(CN2CCN(c3ccc(C(=O)NS(=O)(=O)c4ccc(N[C@H](CCN5CCOCC5)CSc5ccccc5)c(S(=O)(=O)C(F)(F)F)c4)cc3)CC2)C1 [Navitoclax] (partner 0.5 µM)
relative viability ([1]; first compound 0.04 µM): 0.0812
relative viability ([1]; first compound 0.1265 µM): 0.082
relative viability ([1]; first compound 0.4 µM): 0.0765
relative viability ([1]; first compound 1.265 µM): 0.0678
relative viability ([1]; first compound 4 µM): 0.0582
relative viability ([2]; first compound 0.04 µM): 0.945
relative viability ([2]; first compound 0.1265 µM): 0.827
relative viability ([2]; first compound 0.4 µM): 0.96
relative viability ([2]; first compound 1.265 µM): 0.802
relative viability ([2]; first compound 4 µM): 0.685
relative viability ([3]; first compound 0.04 µM): 1.11
relative viability ([3]; first compound 0.1265 µM): 1
relative viability ([3]; first compound 0.4 µM): 0.781
relative viability ([3]; first compound 1.265 µM): 0.261
relative viability ([3]; first compound 4 µM): 0.234
relative viability ([4]; first compound 0.04 µM): 1.05
relative viability ([4]; first compound 0.4 µM): 0.915
relative viability ([4]; first compound 1.265 µM): 0.63
relative viability ([4]; first compound 4 µM): 0.115
relative viability ([5]; first compound 0.04 µM): 0.95
relative viability ([5]; first compound 0.4 µM): 1.14
relative viability ([5]; first compound 1.265 µM): 0.94
relative viability ([5]; first compound 4 µM): 0.689
relative viability ([6]; first compound 0.04 µM): 0.637
relative viability ([6]; first compound 0.1265 µM): 0.606
relative viability ([6]; first compound 0.4 µM): 0.413
relative viability ([6]; first compound 1.265 µM): 0.411
relative viability ([6]; first compound 4 µM): 0.429
relative viability ([7]; first compound 0.04 µM): 0.87
relative viability ([7]; first compound 0.1265 µM): 0.972
relative viability ([7]; first compound 0.4 µM): 0.85
relative viability ([7]; first compound 1.265 µM): 0.52
relative viability ([7]; first compound 4 µM): 0.476
relative viability ([8]; first compound 0.04 µM): 1.13
relative viability ([8]; first compound 0.1265 µM): 1.03
relative viability ([8]; first compound 0.4 µM): 0.951
relative viability ([8]; first compound 1.265 µM): 0.633
relative viability ([8]; first compound 4 µM): 0.516
relative viability ([9]; first compound 0.04 µM): 1.03
relative viability ([9]; first compound 0.1265 µM): 0.798
relative viability ([9]; first compound 0.4 µM): 0.693
relative viability ([9]; first compound 1.265 µM): 0.325
relative viability ([9]; first compound 4 µM): 0.306
relative viability ([10]; first compound 0.04 µM): 0.849
relative viability ([10]; first compound 0.1265 µM): 0.825
relative viability ([10]; first compound 0.4 µM): 0.83
relative viability ([10]; first compound 1.265 µM): 0.407
relative viability ([10]; first compound 4 µM): 0.233
relative viability ([11]; first compound 0.04 µM): 0.656
relative viability ([11]; first compound 0.4 µM): 0.708
relative viability ([11]; first compound 1.265 µM): 0.622
relative viability ([11]; first compound 4 µM): 0.31
relative viability ([12]; first compound 0.04 µM): 0.929
relative viability ([12]; first compound 0.1265 µM): 0.811
relative viability ([12]; first compound 0.4 µM): 0.861
relative viability ([12]; first compound 1.265 µM): 0.85
relative viability ([12]; first compound 4 µM): 0.875
relative viability ([13]; first compound 0.04 µM): 1.2
relative viability ([13]; first compound 0.1265 µM): 0.938
relative viability ([13]; first compound 0.4 µM): 0.837
relative viability ([13]; first compound 1.265 µM): 0.359
relative viability ([13]; first compound 4 µM): 0.388
relative viability ([14]; first compound 0.04 µM): 1.03
relative viability ([14]; first compound 0.4 µM): 0.74
relative viability ([14]; first compound 1.265 µM): 0.552
relative viability ([14]; first compound 4 µM): 0.502
relative viability ([15]; first compound 0.04 µM): 0.652
relative viability ([15]; first compound 0.1265 µM): 0.641
relative viability ([15]; first compound 0.4 µM): 0.452
relative viability ([15]; first compound 1.265 µM): 0.279
relative viability ([15]; first compound 4 µM): 0.285
relative viability ([16]; first compound 0.04 µM): 0.886
relative viability ([16]; first compound 0.4 µM): 0.491
relative viability ([16]; first compound 1.265 µM): 0.136
relative viability ([16]; first compound 4 µM): 0.117
relative viability ([17]; first compound 0.04 µM): 1.1
relative viability ([17]; first compound 0.1265 µM): 0.709
relative viability ([17]; first compound 0.4 µM): 0.498
relative viability ([17]; first compound 1.265 µM): 0.141
relative viability ([17]; first compound 4 µM): 0.0972
relative viability ([18]; first compound 0.04 µM): 0.841
relative viability ([18]; first compound 0.1265 µM): 0.784
relative viability ([18]; first compound 0.4 µM): 0.791
relative viability ([18]; first compound 1.265 µM): 0.0557
relative viability ([18]; first compound 4 µM): 0.0951
relative viability ([19]; first compound 0.04 µM): 1.29
relative viability ([19]; first compound 0.1265 µM): 1.07
relative viability ([19]; first compound 0.4 µM): 1.12
relative viability ([19]; first compound 1.265 µM): 0.477
relative viability ([19]; first compound 4 µM): 0.264

COc1cc2nccc(Oc3ccc(NC(=O)Nc4cc(C)on4)c(Cl)c3)c2cc1OC [Tivozanib] + CC1(C)CCC(c2ccc(Cl)cc2)=C(CN2CCN(c3ccc(C(=O)NS(=O)(=O)c4ccc(N[C@H](CCN5CCOCC5)CSc5ccccc5)c(S(=O)(=O)C(F)(F)F)c4)cc3)CC2)C1 [Navitoclax] (partner 0.5 µM)
relative viability ([1]; first compound 0.005 µM): 0.0616
relative viability ([1]; first compound 0.01581 µM): 0.0524
relative viability ([1]; first compound 0.05 µM): 0.0639
relative viability ([1]; first compound 0.5 µM): 0.0625
relative viability ([2]; first compound 0.005 µM): 0.869
relative viability ([2]; first compound 0.01581 µM): 0.772
relative viability ([2]; first compound 0.05 µM): 0.982
relative viability ([2]; first compound 0.1581 µM): 0.793
relative viability ([2]; first compound 0.5 µM): 0.922
relative viability ([3]; first compound 0.005 µM): 1.11
relative viability ([3]; first compound 0.01581 µM): 1.04
relative viability ([3]; first compound 0.05 µM): 1.19
relative viability ([3]; first compound 0.1581 µM): 1.19
relative viability ([3]; first compound 0.5 µM): 1.15
relative viability ([4]; first compound 0.005 µM): 1.05
relative viability ([4]; first compound 0.01581 µM): 1.05
relative viability ([4]; first compound 0.05 µM): 0.947
relative viability ([4]; first compound 0.1581 µM): 1.01
relative viability ([4]; first compound 0.5 µM): 1.08
relative viability ([5]; first compound 0.005 µM): 1.01
relative viability ([5]; first compound 0.01581 µM): 1.03
relative viability ([5]; first compound 0.05 µM): 1.02
relative viability ([5]; first compound 0.1581 µM): 1.05
relative viability ([5]; first compound 0.5 µM): 1.03
relative viability ([6]; first compound 0.005 µM): 0.641
relative viability ([6]; first compound 0.01581 µM): 0.715
relative viability ([6]; first compound 0.05 µM): 0.706
relative viability ([6]; first compound 0.1581 µM): 0.675
relative viability ([6]; first compound 0.5 µM): 0.705
relative viability ([7]; first compound 0.005 µM): 0.844
relative viability ([7]; first compound 0.01581 µM): 0.989
relative viability ([7]; first compound 0.05 µM): 0.996
relative viability ([7]; first compound 0.5 µM): 1
relative viability ([8]; first compound 0.005 µM): 1.14
relative viability ([8]; first compound 0.01581 µM): 1.08
relative viability ([8]; first compound 0.05 µM): 1.08
relative viability ([8]; first compound 0.1581 µM): 1.24
relative viability ([8]; first compound 0.5 µM): 0.945
relative viability ([9]; first compound 0.005 µM): 1.06
relative viability ([9]; first compound 0.01581 µM): 1.12
relative viability ([9]; first compound 0.05 µM): 1.07
relative viability ([9]; first compound 0.1581 µM): 1.02
relative viability ([9]; first compound 0.5 µM): 1.02
relative viability ([10]; first compound 0.005 µM): 0.865
relative viability ([10]; first compound 0.01581 µM): 0.804
relative viability ([10]; first compound 0.05 µM): 0.823
relative viability ([10]; first compound 0.1581 µM): 0.734
relative viability ([10]; first compound 0.5 µM): 0.82
relative viability ([11]; first compound 0.005 µM): 0.657
relative viability ([11]; first compound 0.01581 µM): 0.638
relative viability ([11]; first compound 0.05 µM): 0.657
relative viability ([11]; first compound 0.1581 µM): 0.505
relative viability ([11]; first compound 0.5 µM): 0.849
relative viability ([12]; first compound 0.005 µM): 0.86
relative viability ([12]; first compound 0.01581 µM): 0.857
relative viability ([12]; first compound 0.05 µM): 0.967
relative viability ([12]; first compound 0.1581 µM): 0.668
relative viability ([12]; first compound 0.5 µM): 0.836
relative viability ([13]; first compound 0.005 µM): 1.11
relative viability ([13]; first compound 0.01581 µM): 1.16
relative viability ([13]; first compound 0.05 µM): 1.19
relative viability ([13]; first compound 0.1581 µM): 1.24
relative viability ([13]; first compound 0.5 µM): 1.14
relative viability ([14]; first compound 0.005 µM): 0.906
relative viability ([14]; first compound 0.01581 µM): 1.07
relative viability ([14]; first compound 0.05 µM): 1.06
relative viability ([14]; first compound 0.1581 µM): 0.917
relative viability ([14]; first compound 0.5 µM): 0.906
relative viability ([15]; first compound 0.005 µM): 0.537
relative viability ([15]; first compound 0.01581 µM): 0.568
relative viability ([15]; first compound 0.05 µM): 0.677
relative viability ([15]; first compound 0.5 µM): 0.584
relative viability ([16]; first compound 0.005 µM): 0.861
relative viability ([16]; first compound 0.01581 µM): 1.09
relative viability ([16]; first compound 0.05 µM): 0.74
relative viability ([16]; first compound 0.1581 µM): 1.02
relative viability ([16]; first compound 0.5 µM): 0.498
relative viability ([17]; first compound 0.005 µM): 1.12
relative viability ([17]; first compound 0.01581 µM): 1.24
relative viability ([17]; first compound 0.05 µM): 1.21
relative viability ([17]; first compound 0.1581 µM): 1.19
relative viability ([17]; first compound 0.5 µM): 1.03
relative viability ([18]; first compound 0.005 µM): 0.837
relative viability ([18]; first compound 0.01581 µM): 0.862
relative viability ([18]; first compound 0.05 µM): 1.1
relative viability ([18]; first compound 0.1581 µM): 0.666
relative viability ([18]; first compound 0.5 µM): 0.806
relative viability ([19]; first compound 0.005 µM): 1.25
relative viability ([19]; first compound 0.01581 µM): 1.16
relative viability ([19]; first compound 0.05 µM): 1.4
relative viability ([19]; first compound 0.1581 µM): 1.17
relative viability ([19]; first compound 0.5 µM): 1.18
